In ChEMBL document CHEMBL3714766, “Tetrahydroisoquinoline compounds and their use as pyruvate dehydrogenase kinase inhibitors” (2015):

What was measured:
[1] = target: T1, Pyruvate dehydrogenase kinase (Homo sapiens, UniProt Q15119+Q15120+Q16654+Q15118); test: Binding affinity to pyruvate dehydrogenase kinase (unknown origin) by VER-00160364 probe based fluorescence polarization assay
[2] = target: T1, Pyruvate dehydrogenase kinase; test: Inhibition of pyruvate dehydrogenase kinase in human PC3 cells incubated for 90 mins by phospho(Ser293)E1alpha MSP ELISA method; type: cell-based; settings: pc-3

Row | IC50 [1] [nM] | IC50 [2] [nM] | SMILES
1 | 1000 | 1000 | C[C@H]1CCc2cc(-c3nc(Cl)nc4c3ccn4C)ccc2N1C(=O)c1ccc(O)cc1O
2 | 10 |  | Cc1cnc(C)c(-c2ccc3c(c2)CCC(c2cccnc2)N3C(=O)c2ccc(O)cc2O)n1 (stereo not drawn)
3 | 1000 |  | COc1cnc(Cl)nc1-c1ccc2c(c1)CCC(c1cccnc1)N2C(=O)c1ccc(O)cc1O (stereo not drawn)
4 | 100 |  | COCCN(C)S(=O)(=O)c1cnc(-c2ccc3c(c2)CC[C@H](C)N3C(=O)c2ccc(O)cc2O)c(C)c1
5 | 100 | 1000 | C[C@H]1CCc2cc(-c3ncnc4ccsc34)ccc2N1C(=O)c1ccc(O)cc1O
6 | 100 |  | CC1CCc2cc(F)ccc2N1C(=O)c1ccc(O)cc1O (stereo not drawn)
7 | 10 |  | Cc1cnc(Cl)nc1-c1ccc2c(c1)CC[C@H](C)C2C(=O)c1ccc(O)cc1O (stereo partly drawn)
8 | 10 |  | Cc1cc(S(=O)(=O)NCc2cccnc2)cnc1-c1ccc2c(c1)CC[C@H](C)N2C(=O)c1ccc(O)cc1O
9 | 1000 |  | CC1CCc2cc(Br)ccc2N1C(=O)c1ccc(O)cc1O (stereo not drawn)
10 | 100 |  | Nc1ccc2c(c1)CCCN2C(=O)c1ccc(O)cc1O
11 | 10 |  | Cc1cc(S(=O)(=O)N2CCOCC2)cnc1-c1ccc2c(c1)CC[C@H](C)N2C(=O)c1ccc(O)cc1O
12 | 10 |  | Cc1cc(S(=O)(=O)NCCCC(N)=O)cnc1-c1ccc2c(c1)CC[C@H](C)N2C(=O)c1ccc(O)cc1O
13 | 10000 |  | C[C@@H]1CCc2cc(F)ccc2N1C(=O)c1cc(Cl)c(O)cc1O
14 | 10 |  | Cc1cc(S(=O)(=O)N2CC(F)(F)C2)cnc1-c1ccc2c(c1)CC[C@H](C)N2C(=O)c1ccc(O)cc1O
15 | 10 |  | CC(=O)NCCNS(=O)(=O)c1cnc(-c2ccc3c(c2)CC[C@H](C)N3C(=O)c2ccc(O)cc2O)c(C)c1
16 | 100 |  | C[C@H]1CCc2cc(F)ccc2N1C(=O)c1ccc(O)cc1O
17 | 10 |  | Cc1cc(S(=O)(=O)N2CCOCC2)cnc1-c1ccc2c(c1)CCC(c1cccnc1)N2C(=O)c1ccc(O)cc1O (stereo not drawn)
18 | 10 |  | Cc1cc(S(=O)(=O)NCc2ccccn2)cnc1-c1ccc2c(c1)CC[C@H](C)N2C(=O)c1ccc(O)cc1O
19 | 100 |  | O=C(c1ccc(O)cc1O)N1c2ccccc2CCC1CNC(=O)C(F)(F)F (stereo not drawn)
20 | 1000 |  | COC(=O)c1ccc2c(c1)CCCN2C(=O)c1ccc(O)cc1O
21 | 100 |  | C[C@H]1CCc2cc(F)ccc2N1C(=O)c1cc(Cl)c(O)cc1O

Row | IC50 [1] [nM] | IC50 [2] [nM] | SMILES
22 | 1000 |  | O=C(c1ccc(O)cc1O)N1c2ccccc2CCC1c1ccco1 (stereo not drawn)
23 | 100 |  | O=C(c1ccc(O)cc1O)N1c2ccccc2CCC1c1cccnc1 (stereo not drawn)
24 | 100 |  | CC1CCc2cc(F)ccc2N1C(=O)c1cc(Cl)c(O)cc1O (stereo not drawn)
25 | 10 | 1000 | Cc1cc(N)cnc1-c1ccc2c(c1)CC[C@H](C)N2C(=O)c1ccc(O)cc1O
26 | 100 | 1000 | CCNc1ccc(-c2ccc3c(c2)CC[C@H](C)N3C(=O)c2ccc(O)cc2O)c(C)n1
27 | 100 | 1000 | Cc1cc2ccccc2nc1-c1ccc2c(c1)CC[C@H](C)N2C(=O)c1ccc(O)cc1O
28 | 10 |  | Cc1cc(S(=O)(=O)N2CCN(C)CC2)cnc1-c1ccc2c(c1)CC[C@H](C)N2C(=O)c1ccc(O)cc1O
29 | 100 | 1000 | C[C@H]1CCc2cc(-c3ccnc4ccccc34)ccc2N1C(=O)c1ccc(O)cc1O
30 | 10 | 1000 | Cc1cnc(Cl)nc1-c1ccc2c(c1)CC[C@H](C)N2C(=O)c1cc(F)c(O)cc1O
31 | 1000 |  | O=C(c1ccc(O)cc1O)N1c2ccccc2CCC1c1cccs1 (stereo not drawn)
32 | 1000 |  | CC(C)C(=O)Nc1ccc2c(c1)CCCN2C(=O)c1ccc(O)cc1O
33 | 1000 |  | Cc1n[nH]c(C)c1C1CCc2ccccc2N1C(=O)c1ccc(O)cc1O (stereo not drawn)
34 | 10 | 1000 | Cc1cc(S(=O)(=O)NCc2cccs2)cnc1-c1ccc2c(c1)CC[C@H](C)N2C(=O)c1ccc(O)cc1O
35 | 1000 | 1000 | C[C@H]1CCc2cc(-c3nc(Cl)nc4ccsc34)ccc2N1C(=O)c1ccc(O)cc1O
36 | 100 |  | CS(=O)(=O)NCC1CCc2ccccc2N1C(=O)c1ccc(O)cc1O (stereo not drawn)
37 | 10000 |  | O=C(O)c1ccc2c(c1)CCCN2C(=O)c1ccc(O)cc1O
38 | 10 |  | Cc1cncnc1-c1ccc2c(c1)CCC(c1cccnc1)N2C(=O)c1ccc(O)cc1O (stereo not drawn)
39 | 10 |  | O=C(c1ccc(O)cc1O)N1c2ccc(-c3ncnc4[nH]ccc34)cc2CCC1c1cccnc1 (stereo not drawn)
40 | 10 |  | CC(=O)N1CCN(S(=O)(=O)c2cnc(-c3ccc4c(c3)CC[C@H](C)N4C(=O)c3ccc(O)cc3O)c(C)c2)CC1
41 | 10 |  | Cc1cnc(Cl)nc1-c1ccc2c(c1)CCC(c1cccnc1)N2C(=O)c1ccc(O)cc1O (stereo not drawn)
42 | 100 |  | O=C(c1ccc(O)cc1O)N1c2ccc(-c3nc4ccc(Cl)cc4cc3CO)cc2CCC1c1cccnc1 (stereo not drawn)

Row | IC50 [1] [nM] | IC50 [2] [nM] | SMILES
43 | 100 | 10000 | Cc1sc2ncnc(-c3ccc4c(c3)CC[C@H](C)N4C(=O)c3ccc(O)cc3O)c2c1C
44 | 1000 |  | C[C@@H]1CCc2cc(F)ccc2N1C(=O)c1ccc(O)cc1O
45 | 1000 | 1000 | CSc1nc(-c2ccc3c(c2)CC[C@H](C)N3C(=O)c2ccc(O)cc2O)c2cc[nH]c2n1
46 | 100 |  | C[C@H]1CCc2cc(C(=O)N(C)Cc3cccnc3)ccc2N1C(=O)c1ccc(O)cc1O
47 | 100 |  | CC1CCc2cc(C(=O)N(C)CC(F)(F)F)ccc2N1C(=O)c1ccc(O)cc1O (stereo not drawn)
48 | 100 |  | Cc1cc(S(=O)(=O)N2CCC(F)(F)CC2)cnc1-c1ccc2c(c1)CC[C@H](C)N2C(=O)c1ccc(O)cc1O
49 | 100 |  | C[C@H]1CCc2ccccc2N1C(=O)c1ccc(O)cc1O
50 | 1000 |  | O=C(c1ccc(O)cc1O)N1c2ccccc2CCC1c1ccccn1 (stereo not drawn)
51 | 100 | 10000 | COCCNS(=O)(=O)c1cnc(-c2ccc3c(c2)CC[C@H](C)N3C(=O)c2ccc(O)cc2O)c(C)c1
52 | 100 |  | CCN(CC)S(=O)(=O)c1ccc2c(c1)CCC(C)N2C(=O)c1ccc(O)cc1O (stereo not drawn)
53 | 100 | 1000 | Cc1cc(S(=O)(=O)NCC2CC2)cnc1-c1ccc2c(c1)CC[C@H](C)N2C(=O)c1ccc(O)cc1O
54 | 100 |  | O=C(c1ccc(O)cc1O)N1c2ccccc2CCC1c1ccn[nH]1 (stereo not drawn)
55 | 100 |  | O=C(c1ccc(O)cc1O)N1c2ccccc2CC[C@@H]1c1cccnc1
56 | 1000 |  | O=C(c1ccc2c(c1)CCCN2C(=O)c1ccc(O)cc1O)N1Cc2ccccc2C1
57 | 10 |  | CCc1nccnc1-c1ccc2c(c1)CCC(c1cccnc1)N2C(=O)c1ccc(O)cc1O (stereo not drawn)
58 | 100 | 1000 | COCCOc1ncc(C)c(-c2ccc3c(c2)CC[C@H](C)N3C(=O)c2ccc(O)cc2O)n1
59 | 100 |  | CC1CCc2ccccc2N1C(=O)c1ccc(O)cc1O (stereo not drawn)
60 | 10 | 1000 | C[C@H]1CCc2cc(-c3ncnc4cccc(F)c34)ccc2N1C(=O)c1ccc(O)cc1O
61 | 100 |  | Cc1cccnc1-c1ccc2c(c1)CCC(CNS(C)(=O)=O)N2C(=O)c1ccc(O)cc1O (stereo not drawn)
62 | 10 |  | Cc1cc2ccc(F)cc2nc1-c1ccc2c(c1)CCC(c1cccnc1)N2C(=O)c1ccc(O)cc1O (stereo not drawn)
63 | 10 |  | Cc1cccnc1-c1ccc2c(c1)CCC(c1cccnc1)N2C(=O)c1ccc(O)cc1O (stereo not drawn)
